Literature values in US8372933B2, “Hyperbranched polymers based on cyclodextrins and poly (amidoamines) for the controlled release of insoluble drugs” (L'Urederra Fundacion Para el Desarrollo Tecnologico y Social, priority 2007, dated 2013).

Settings: oral

bioavailability: 15-30%
SMILES: Nc1nc2c(ncn2COCCO)c(=O)[nH]1 [Acyclovir]
